Columns and labels:
[1] = tested on: Panc354; assay: Transwell migration assay towards CXCL12 (serum-free, B27); type: cell-based, human; conditions: 8 μm pore inserts, CXCL12 10 nM as chemoattractant, 30 min peptide pre-treatment, 24 h, B27 as serum substitute, dose-dependent, largest suppression, n = 3
Procedure: Migration assays were performed using inserts with 8μm pore size PET membranes (Corning, 353,097). Serum (10% FBS) or CXCl12 (10nM) was used in the companion plates as chemoattractant. After 24 h, invaded cells were fixed with 4% PFA and stained with DAPI (Merck, 10,236,276,001). Ten random 10 × fields were chosen and photographed (Keyence), and the pictures were quantified using ImageJ (RRID:SCR_003070).
The CXCL12 – CXCR4 axis regulates a bidirectional tumor-stromal signaling loop that ultimately promotes CSCs and miCSCs and their metastatic and chemoresistant phenotypes. Therefore, targeting CXCR4 may provide a significant improvement in the anticancer therapeutic efficacy. The Endogenous Peptide Inhibitor of CXCR4 (EPI-X4) is a natural antagonist of CXCR4, previously discovered in a human peptide library screen. […]
(§1) (A) Migration assays towards CXCL12 using Panc354 for EPI-X4 and its derivatives at depicted concentrations. […] (D) Quantifications of percent mesenchymal structures after 15 min and 6 h of CXCL12 treatment in MetPO1 cells. […] Intensity ratios (IR) calculated against control lane using ImageJ. […] Quantification of cell viability and representative pictures for clonogenic assays after treatment with JM#21 (10 μM), gemcitabine (Gem) for indicated concentrations as depicted in experimental design in MetPO1 cell line. […]

[2] = tested on: CD133+ CSCs in Panc354 and MetPO1 cells; assay: Flow cytometry for CD133 after combination treatment; type: cell-based, human; conditions: flow cytometry after 12 days of treatment, fold change
Procedure: For surface protein staining, 1 × 10^6 cells were resuspended in 100µl ice-cold FACS buffer supplemented with 6 µl Gamunex for 15 min at 4 °C. Cells were then incubated with CD133 (PE, Miltenyi Biotec, #130-113-108, RRID: AB_2725937) and CXCR4 (APC, eBioscience, #17-9999-42, RRID: AB_1724113) antibodies or an appropriate isotype control for 30 min at 4 °C. After a PBS wash, cells were resuspended in 500µl of ice-cold FACS buffer with DAPI in FACS tubes for analysis.
as §1
We then evaluated the therapeutic potential of JM#21. […] Since we have previously shown the role of CSCs in chemoresistance and the benefit of combination therapy for PDAC in vitro and in vivo[6],[38]–[40], we proceeded to evaluate the role of CSCs in the above-mentioned combination treatment and used flow cytometry to quantify CD133 + CSCs after 12 days of treatment (Fig. 5J, Supp. Figure 3I). […]

## EPI-X4: Endogenous Peptide Inhibitor of CXCR4, a natural antagonist of CXCR4 from a human peptide library screen (PQNLIKQNCELFEQLG; UniProt P02768 408-423, looked up, fragment)
[1]
  suppression of CXCL12-induced migration: approx. 50%

## Nc1ccn([C@@H]2O[C@H](CO)[C@@H](O)C2(F)F)c(=O)n1 [gemcitabine]
[2]
  CD133+ population in relapsed cells: significant increase
